Measurements taken from ChEMBL document CHEMBL1155339, “Characterization of alpha-nitromethyl ketone as a new zinc-binding group based on structural analysis of its complex with carboxypeptidase A” (Bioorg Med Chem Lett, 2009).

Assays:
Carboxypeptidase A1 = target: T1, Carboxypeptidase A1 (Homo sapiens, UniProt P15085); assay: Inhibition of Carboxypeptidase A assessed as amount of Cl-CPL consumed by UV spectrometer
T1 sequence (P15085 whole entry): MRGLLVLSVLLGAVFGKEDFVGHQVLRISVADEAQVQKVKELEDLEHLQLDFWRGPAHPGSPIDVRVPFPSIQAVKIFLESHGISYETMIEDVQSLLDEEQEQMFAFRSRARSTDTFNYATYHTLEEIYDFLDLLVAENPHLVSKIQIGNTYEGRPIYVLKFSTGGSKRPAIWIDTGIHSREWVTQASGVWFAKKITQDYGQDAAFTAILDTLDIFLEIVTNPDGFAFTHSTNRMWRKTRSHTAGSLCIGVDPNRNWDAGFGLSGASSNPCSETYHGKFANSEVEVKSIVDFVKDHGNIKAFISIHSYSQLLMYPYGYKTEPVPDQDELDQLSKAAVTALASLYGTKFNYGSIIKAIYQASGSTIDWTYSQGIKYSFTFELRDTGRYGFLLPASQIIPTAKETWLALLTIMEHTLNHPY

[1] = Dissociation constant, pKa of the compound; assay type: physicochemical

| Compound | Ki (Carboxypeptidase A1) | pKa [1] |
| --- | --- | --- |
| CC(=O)CC(Cc1ccccc1)C(=O)O (racemic) | 207 µM | – |
| O=C(O)C[N+](=O)[O-] [NITROACETIC ACID] | – | 1.68 |
| O=C(C[C@H](Cc1ccccc1)C(=O)O)C[N+](=O)[O-] | 31 µM | – |
| O=C(CBr)CC(Cc1ccccc1)C(=O)O (racemic) | 15 µM | – |

More lines, main results first:

| Ki (Carboxypeptidase A1) | Compound | pKa [1] |
| --- | --- | --- |
| 0.16 µM | O=C(C[C@@H](Cc1ccccc1)C(=O)O)C[N+](=O)[O-] | – |
| 0.43 µM | O=C(CC(Cc1ccccc1)C(=O)O)C[N+](=O)[O-] (racemic) | – |
| 0.2 µM | O=C(O)C(CC(=O)C(F)(F)F)Cc1ccccc1 (racemic) | – |
